Experimental data as given in BigSolDB 2.1.

Cc1ccc(S(N)(=O)=O)cc1
Details	solubility (mole fraction)
in acetone, 273.15 K	0.128
in acetone, 279.15 K	0.137
in acetone, 283.65 K	0.144
in acetone, 289.15 K	0.154
in acetone, 293.65 K	0.163
in acetone, 298.85 K	0.173
in acetone, 303.25 K	0.184
in acetone, 308.95 K	0.197
in acetone, 313.15 K	0.211
in acetone, 317.65 K	0.227
in acetone, 322.15 K	0.243
in acetonitrile, 273.15 K	0.0408
in acetonitrile, 279.15 K	0.047
in acetonitrile, 284.15 K	0.0538
in acetonitrile, 289.15 K	0.063
in acetonitrile, 294.15 K	0.0722
in acetonitrile, 299.15 K	0.0826
in acetonitrile, 303.65 K	0.093
in acetonitrile, 309.15 K	0.106
in acetonitrile, 313.15 K	0.121
in acetonitrile, 319.15 K	0.143
in acetonitrile, 324.75 K	0.164
in cyclohexanone, 273.15 K	0.122
in cyclohexanone, 279.15 K	0.131
in cyclohexanone, 284.15 K	0.139
in cyclohexanone, 289.15 K	0.147
in cyclohexanone, 294.15 K	0.157
in cyclohexanone, 299.15 K	0.169
in cyclohexanone, 303.65 K	0.18
in cyclohexanone, 309.15 K	0.192
in cyclohexanone, 313.15 K	0.206
in cyclohexanone, 319.15 K	0.226
in cyclohexanone, 324.75 K	0.244
in cyclopentanone, 273.15 K	0.149
in cyclopentanone, 279.15 K	0.158
in cyclopentanone, 284.15 K	0.166
in cyclopentanone, 289.15 K	0.175
in cyclopentanone, 294.15 K	0.185
in cyclopentanone, 299.15 K	0.196
in cyclopentanone, 303.65 K	0.206
in cyclopentanone, 309.15 K	0.218
in cyclopentanone, 313.15 K	0.231
in cyclopentanone, 319.15 K	0.249
in cyclopentanone, 324.75 K	0.266
in dichloromethane, 273.15 K	0.00336
in dichloromethane, 279.15 K	0.00392
in dichloromethane, 284.15 K	0.00458
in dichloromethane, 289.15 K	0.00587
in dichloromethane, 294.15 K	0.00705
in dichloromethane, 299.15 K	0.00877
in dichloromethane, 303.65 K	0.0103
in dichloromethane, 309.15 K	0.0128
in dichloromethane, 312.15 K	0.0143
in ethanol, 273.15 K	0.0174
in ethanol, 279.15 K	0.0203
in ethanol, 283.65 K	0.0233
in ethanol, 289.15 K	0.0268
in ethanol, 293.65 K	0.0312
in ethanol, 298.85 K	0.0361
in ethanol, 303.25 K	0.0425
in ethanol, 308.95 K	0.05
in ethanol, 313.15 K	0.0592
in ethanol, 317.65 K	0.0705
in ethanol, 322.15 K	0.0842
in ethyl acetate, 273.15 K	0.0364
in ethyl acetate, 279.15 K	0.0401
in ethyl acetate, 283.65 K	0.0442
in ethyl acetate, 289.15 K	0.0481
in ethyl acetate, 293.65 K	0.0541
in ethyl acetate, 298.85 K	0.059
in ethyl acetate, 303.25 K	0.0652
in ethyl acetate, 308.95 K	0.0718
in ethyl acetate, 313.15 K	0.0797
in ethyl acetate, 317.65 K	0.0897
in ethyl acetate, 322.15 K	0.1
in ethyl formate, 273.15 K	0.023
in ethyl formate, 279.15 K	0.0268
in ethyl formate, 284.15 K	0.0308
in ethyl formate, 289.15 K	0.0342
in ethyl formate, 294.15 K	0.0391
in ethyl formate, 299.15 K	0.0447
in ethyl formate, 303.65 K	0.0507
in ethyl formate, 309.15 K	0.0582
in ethyl formate, 313.15 K	0.0655
in ethyl formate, 319.15 K	0.0784
in ethyl formate, 324.75 K	0.0914
in isobutanol, 273.15 K	0.00456
in isobutanol, 279.15 K	0.00562
in isobutanol, 283.65 K	0.0069
in isobutanol, 289.15 K	0.00846
in isobutanol, 293.65 K	0.0103
in isobutanol, 298.85 K	0.0124
in isobutanol, 303.25 K	0.016
in isobutanol, 308.95 K	0.0193
in isobutanol, 313.15 K	0.0236
in isobutanol, 317.65 K	0.0288
in isobutanol, 322.15 K	0.0357
in isopentanol, 273.15 K	0.00515
in isopentanol, 279.15 K	0.00618
in isopentanol, 284.15 K	0.00814
in isopentanol, 289.15 K	0.00944
in isopentanol, 294.15 K	0.0114
in isopentanol, 299.15 K	0.0139
in isopentanol, 303.65 K	0.0168
in isopentanol, 309.15 K	0.0204
in isopentanol, 313.15 K	0.0251
in isopentanol, 319.15 K	0.0319
in isopentanol, 324.75 K	0.039
in isopropanol, 273.15 K	0.0077
in isopropanol, 279.15 K	0.00943
in isopropanol, 283.65 K	0.0114
in isopropanol, 289.15 K	0.0137
in isopropanol, 293.65 K	0.0167
in isopropanol, 298.85 K	0.0201
in isopropanol, 303.25 K	0.0246
in isopropanol, 308.95 K	0.0301
in isopropanol, 313.15 K	0.0365
in isopropanol, 317.65 K	0.0447
in isopropanol, 322.15 K	0.0552
in methanol, 273.15 K	0.0316
in methanol, 279.15 K	0.0362
in methanol, 283.65 K	0.0415
in methanol, 289.15 K	0.0473
in methanol, 293.65 K	0.0544
in methanol, 298.85 K	0.0626
in methanol, 303.25 K	0.0724
in methanol, 308.95 K	0.0836
in methanol, 313.15 K	0.0971
in methanol, 317.65 K	0.112
in methanol, 322.15 K	0.131
in methyl acetate, 273.15 K	0.0494
in methyl acetate, 279.15 K	0.0558
in methyl acetate, 284.15 K	0.062
in methyl acetate, 289.15 K	0.0676
in methyl acetate, 294.15 K	0.075
in methyl acetate, 299.15 K	0.0833
in methyl acetate, 303.65 K	0.0925
in methyl acetate, 309.15 K	0.103
in methyl acetate, 313.15 K	0.115
in methyl acetate, 319.15 K	0.132
in methyl acetate, 324.75 K	0.148
in n-butanol, 273.15 K	0.00725
in n-butanol, 279.15 K	0.00871
in n-butanol, 283.65 K	0.0104
in n-butanol, 289.15 K	0.0124
in n-butanol, 293.65 K	0.0148
in n-butanol, 298.85 K	0.0172
in n-butanol, 303.25 K	0.0209
in n-butanol, 308.95 K	0.0253
in n-butanol, 313.15 K	0.0303
in n-butanol, 317.65 K	0.0363
in n-butanol, 322.15 K	0.044
in n-pentanol, 273.15 K	0.00607
in n-pentanol, 279.15 K	0.00712
in n-pentanol, 284.15 K	0.00906
in n-pentanol, 289.15 K	0.0107
in n-pentanol, 294.15 K	0.0128
in n-pentanol, 299.15 K	0.0153
in n-pentanol, 303.65 K	0.0182
in n-pentanol, 309.15 K	0.022
in n-pentanol, 313.15 K	0.0271
in n-pentanol, 319.15 K	0.0343
in n-pentanol, 324.75 K	0.0416
in n-propanol, 273.15 K	0.00916
in n-propanol, 279.15 K	0.0111
in n-propanol, 283.65 K	0.013
in n-propanol, 289.15 K	0.0154
in n-propanol, 293.65 K	0.0183
in n-propanol, 298.85 K	0.0215
in n-propanol, 303.25 K	0.0259
in n-propanol, 308.95 K	0.0312
in n-propanol, 313.15 K	0.0376
in n-propanol, 317.65 K	0.0455
in n-propanol, 322.15 K	0.0554
